# Where no end group is shown, it is not given here.
# System: surgical incisions on the backs of Swiss-Webster mice
# Assay: Scar formation after surgical incisions, synthetic peptide-metal complexes injected along the incision line
# Assay type: in vivo
# Settings: for post-surgical scar formation compared with control wounds (in words): mice, injection along incision line; for Scar Formation score (5 days): 10 mice each, 1 mg/ml in 0.85% saline, 0.02 ml injected at four sites on each side of incision, immediately after surgery and 24 hours later, rated 0 to 4 (heavy scarring), untreated control 3.6
Compound,post-surgical scar formation compared with control wounds (in words),Scar Formation score (5 days)
"N[C@@H](CS(=O)(=O)O)C(=O)O.[Cu+2] [Cysteic acid-Copper(II), reference compound]",much less active,
"N[C@@H](CCS(=O)(=O)O)C(=O)O.[Cu+2] [Homocysteic acid-Copper(II), reference compound]",much less active,
Ala-Gly-His-Copper(II),,0.3 ± 0.1
Ala-Gly-His-Tin(II),,0.3 ± 0.1
Cysteine sulfinic acid-Copper(II) [reference compound],much less active,2.9 ± 0.5
Gly-Cys-Gly-Copper(II),,1.4 ± 0.3
Gly-Gly-Gly-Copper(II),,0.5 ± 0.3
Gly-Gly-His-Copper(II),,0.3 ± 0.2
Gly-His-Lys-Copper(II),,0.2 ± 0.1
Gly-His-Lys-His-Copper(II) (GHKH; also: copper(II) complex),,0.4 ± 0.2
Gly-His-Lys-His-Tin(II) (GHKH; also: tin(II) complex),,0.4 ± 0.2
Gly-His-Lys-Tin(II),,0.4 ± 0.1
His-Gly-Gly-Copper(II),,0.5 ± 0.2
His-Gly-Gly-Tin(II),,0.4 ± 0.2
Phe-Phe-Copper(II),,0.5 ± 0.3

# From patent publication US8183204B2, “Methods and compositions for increasing skin remodeling” (Summit Associates International Inc., priority 2000, dated 2012)
